From ChEMBL document CHEMBL4665768, “Monacycliones G-K and ent-Gephyromycin A, Angucycline Derivatives from the Marine-Derived Streptomyces sp. HDN15129” (J Nat Prod, 2020)
Structures can show the parent of a compound that is named as a salt.

What was measured:
Bel-7402 = assay: Cytotoxicity against human Bel-7402 cells assessed as reduction in cell viability by SRB assay; format: functional, cell-based
ASPC1 = assay: Cytotoxicity against human ASPC1 cells assessed as reduction in cell viability by SRB assay; format: functional, cell-based
PC-3 = assay: Cytotoxicity against human PC-3 cells assessed as reduction in cell viability by SRB assay; format: functional, cell-based
SH-SY5Y = assay: Cytotoxicity against human SH-SY5Y cells assessed as reduction in cell viability by SRB assay; format: functional, cell-based
U-87 MG = assay: Cytotoxicity against human U87 cells assessed as reduction in cell viability by SRB assay; format: functional, cell-based, U-87MG ATCC
HL-60 = assay: Cytotoxicity against human HL-60 cells assessed as reduction in cell viability by MTT assay; format: functional, cell-based
HCT-116 = assay: Cytotoxicity against human HCT-116 cells assessed as reduction in cell viability by SRB assay; format: functional, cell-based
K562 = assay: Cytotoxicity against human K562 cells assessed as reduction in cell viability by MTT assay; format: functional, cell-based

Row | SMILES | IC50 (Bel-7402) | IC50 (ASPC1) | IC50 (PC-3) | IC50 (SH-SY5Y) | IC50 (U-87 MG) | IC50 (HL-60) | IC50 (HCT-116) | IC50 (K562)
1 | COc1cccc2c1C(=O)c1c(O)c3c(c(O)c1C2=O)C[C@@](O)(C(=O)CO)C[C@@H]3O[C@H]1C[C@H](N)[C@H](O)[C@H](C)O1 [DOXORUBICIN HYDROCHLORIDE] | 0.3 µM | 0.2 µM | 0.2 µM | 0.5 µM | 0.2 µM | – | – | –
2 | CSc1cc2c(c3c1C[C@@](C)(O)CC3=O)C(=O)c1ccc([C@H]3CC[C@H](N(C)C)[C@H](C)O3)c(O)c1C2=O | 10 µM | 7.1 µM | 7.7 µM | 4.3 µM | 7.9 µM | 3.5 µM | 10 µM | 7.1 µM
3 | CN[C@H]1CC[C@H](c2ccc3c(c2O)C(=O)c2cc(SC)c4cc(C)cc(O)c4c2C3=O)O[C@H]1C | > 10 µM | > 10 µM | > 10 µM | > 10 µM | > 10 µM | 7.6 µM | > 10 µM | > 10 µM
